System: monocrotaline reversal model of pulmonary hypertension
Test: monocrotaline reversal model of pulmonary hypertension
Format: in vivo
Conditions: 3 mg/kg orally once daily from days 21-42; also dosed at 0.3 and 1 mg/kg
Method: The compound of formula II, namely 4-[8-(3-Fluorophenyl)-[1,7]naphthyridin-6-yl]-cyclohexanecarboxylic acid and being a representative example of compounds of formula I, is tested in the monocrotaline reversal model of pulmonary hypertension that is described by Schermuly et al in The Journal of Clinical Investigation 2005 October; 115(10):2811-21. The disclosure of that article is incorporated herein by way of reference.
4-[8-(3-Fluorophenyl)-[1,7]-naphthyridin-6-yl]-cyclohexanecarboxylic acid is dosed orally to the animals once daily from days 21-42 of the experiment at 0.3, 1 and 3 mg/kg.

O=C(O)C1CCC(c2cc3cccnc3c(-c3cccc(F)c3)n2)CC1 (stereo not shown) [4-[8-(3-Fluorophenyl)-[1,7]naphthyridin-6-yl]-cyclohexanecarboxylic acid]
shows efficacy: medial wall thickness | mortality | reversal of RV (right ventricular) pressure | reversal of RV hypertrophy

From patent US20090023769A1, “Organic Compounds” (NOVARTIS AG, priority 2006, published 2009)
